Where two headings read alike, the source gives them in different places.
What was measured:
[1] = set-up: method as in Sinnes et al. [2019]; settings: PBS, ref Sinnes et al. [2019], in % (unit assumed), cited from earlier work
[2] = set-up: method as in Sinnes et al. [2019]; settings: HS, ref Sinnes et al. [2019], in % (unit assumed), cited from earlier work
[3] = set-up: method as in Sinnes et al. [2019]; settings: ref Sinnes et al. [2019], in % (unit assumed), cited from earlier work
[4] = test system: PSMA-positive LNCaP cells; settings: cited from earlier work
PSMA = target: T1, PSMA (Homo sapiens, UniProt Q04609); settings: LNCaP cells, read-out: Ki ± SD, cited from earlier work
T1 construct: 10^5 LNCaP cells per well were incubated with 0.75 nM [^68Ga]Ga-PSMA-10; host or cells: LNCaP
T1 sequence (Q04609 whole entry): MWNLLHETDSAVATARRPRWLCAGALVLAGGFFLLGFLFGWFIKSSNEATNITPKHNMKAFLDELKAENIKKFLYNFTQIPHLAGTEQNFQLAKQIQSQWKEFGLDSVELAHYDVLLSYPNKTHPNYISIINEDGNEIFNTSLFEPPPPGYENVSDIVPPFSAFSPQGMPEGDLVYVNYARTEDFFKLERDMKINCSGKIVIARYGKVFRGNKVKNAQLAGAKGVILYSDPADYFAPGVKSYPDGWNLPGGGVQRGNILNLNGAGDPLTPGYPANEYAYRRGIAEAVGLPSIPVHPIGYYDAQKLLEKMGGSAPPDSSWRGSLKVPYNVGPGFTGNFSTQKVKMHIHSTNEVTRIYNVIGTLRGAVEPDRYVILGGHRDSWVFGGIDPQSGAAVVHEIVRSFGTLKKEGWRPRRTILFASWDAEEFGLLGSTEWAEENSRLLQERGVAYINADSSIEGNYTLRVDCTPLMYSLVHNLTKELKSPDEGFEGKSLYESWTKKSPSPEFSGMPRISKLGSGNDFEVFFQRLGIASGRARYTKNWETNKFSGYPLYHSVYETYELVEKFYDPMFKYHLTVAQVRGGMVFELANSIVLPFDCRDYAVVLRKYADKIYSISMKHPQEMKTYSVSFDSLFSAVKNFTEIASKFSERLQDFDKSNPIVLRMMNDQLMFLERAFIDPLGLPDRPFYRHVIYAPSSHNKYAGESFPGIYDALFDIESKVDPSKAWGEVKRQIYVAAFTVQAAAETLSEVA

[5] = test system: PSMA-positive LNCaP cells; assay: Internalization studies in LNCaP cells; format: cell-based, human; settings: for specific internalization or cell surface binding: PSMA-positive LNCaP cells
Procedure: (§1) The in vitro experiments were performed using the PSMA-positive LNCaP cell line (androgen-sensitive human lymph node metastatic lesion of prostatic adenocarcinoma, CRL-1740 [American Type Culture Collection]) (Benešová et al. [2015]). For negative control, PSMA-PC3 cells (bone metastasis of a grade IV prostatic adenocarcinoma, ATCC CRL-1435) were used (Eder et al. [2012a]). The cells were cultured in RPMI1640 medium supplemented with 10% fetal calf serum and L-glutamine and incubated at 37 °C in an environment of humidified air containing 5% CO2. The cells were harvested using trypsin-ethylenediaminetetraacetic acid (trypsin-EDTA; 0.05% trypsin, 0.02% EDTA, all from PAN Biotech).
For internalization studies 10^5 LNCaP or PC3 cells were seeded in poly(L-lysine)-coated 24-well cell culture plates at 37 °C in an environment of humidified air containing 5% CO2 for 24 h. (Mier et al. [2007]). The medium is removed and 250 μl of radiolabeled 30 nM AAZTA^5-PSMA is replaced for 45 min. One plate is being incubated at 37 °C and the second one at 4 °C to inhibit the internalization. The specificity of the ligands is proofed by addition 500 μM of 2-(phosphonomethyl)-pentanedioic acid (2-PMPA, Axxora, Loerrach, Germany). After incubation, the cells were washed three times with 1 ml ice cold PBS. To determine the surface-bound activity cells were incubated twice with 0.5 ml of glycine-HCl in PBS (50 mM, pH 2.8) each for 5 min at room temperature. Both washing steps were collected for measuring with a gamma counter (Packard Cobra II, GMI, Minnesota, USA). Before lysating the cells with 0.5 mL of 0.3 M NaOH to determine the internalized fraction, they were once washed with 1 ml ice cold PBS (Eder et al. [2012a]).

PC3 cells = assay: Internalization studies in PC3 cells (negative control); format: cell-based, human; settings: PSMA-negative PC3 cells
Procedure: as §1
For internalization studies 10^5 LNCaP or PC3 cells were seeded in poly(L-lysine)-coated 24-well cell culture plates at 37 °C in an environment of humidified air containing 5% CO2 for 24 h. (Mier et al. [2007]). The medium is removed and 250 μl of radiolabeled 30 nM AAZTA^5-PSMA is replaced for 45 min. One plate is being incubated at 37 °C and the second one at 4 °C to inhibit the internalization. The specificity of the ligands is proofed by addition 500 μM of 2-(phosphonomethyl)-pentanedioic acid (2-PMPA, Axxora, Loerrach, Germany). After incubation, the cells were washed three times with 1 ml ice cold PBS. […]

[6] = LNCaP cells, ref Benešová et al. [2015]

O=C(O)CCCCC1(N(CC(=O)O)CC(=O)O)CN(CC(=O)O)CCN(CC(=O)O)C1.[68Ga+3] [[^68Ga]Ga-AAZTA^5]
Stability values ([1]; 0.5 h): 97.5 ± 1.0 | Stability values ([1]; 1 h): 88.7 ± 0.5 | Stability values ([1]; 2 h): 78.5 ± 4.5 | Stability values ([2]; 0.5 h): 93.0 ± 0.8 | Stability values ([2]; 1 h): 92.7 ± 1.3 | Stability values ([2]; 2 h): 85.3 ± 3.4 | Stability values ([3]; DTPA, 0.5 h): 84.3 ± 0.9 | Stability values ([3]; DTPA, 1 h): 78.0 ± 1.4 | Stability values ([3]; DTPA, 2 h): 45.7 ± 1.3 | Stability values ([3]; EDTA, 0.5 h): 93.0 ± 0.2 | Stability values ([3]; EDTA, 1 h): 50.3 ± 7.4 | Stability values ([3]; EDTA, 2 h): 49.5 ± 2.5

O=C(O)CCC(NC(=O)NC(CCCCNC(=O)C(Cc1ccc2ccccc2c1)NC(=O)C1CCC(CNC(=O)CN2CCN(CC(=O)O)CCN(CC(=O)O)CCN(CC(=O)O)CC2)CC1)C(=O)O)C(=O)O.[Ga+3] (stereo not drawn) [[^nat/68Ga]Ga-PSMA-617]
%internalization / total cellular activity ratio [4, 6]: around 45% | Internalization ± SD [4, 6]: 17.7 ± 4.4 %IA/10^6 cells | %internalization / total cellular activity ratio ([4]; LNCaP cells, ref Benešová et al. [2015], listed as [^68Ga]Ga-DOTA-PSMA-617): 47% | Ki (PSMA; ref Benešová et al. [2015]): 6.4 ± 1 nM

O=C([O-])CN(CCN(CC(=O)[O-])Cc1cc(CCC(=O)NCCCCCC(=O)NCCCC[C@H](NC(=O)N[C@@H](CCC(=O)O)C(=O)O)C(=O)O)ccc1[O-])Cc1cc(CCC(=O)O)ccc1[O-].[68Ga+3].[OH3+] [[^nat/68Ga]Ga-PSMA-11]
Internalization ± SD [4, 6]: 9.5 ± 2.6 %IA/10^6 cells | Ki (PSMA; ref Eder et al. [2012a]): 12 ± 2.8 nM

O=C(O)CCCCC1(N(CC(=O)O)CC(=O)O)CN(CC(=O)O)CCN(CC(=O)O)C1.[44Sc+3] [^44Sc AAZTA^5]
Stability values ([1]; 1 h): 95.3 ± 0.9 | Stability values ([1]; 4 h): 92.7 ± 1.3 | Stability values ([1]; 8 h): 95.9 ± 1.2 | Stability values ([1]; 24 h): 96.0 ± 0.8 | Stability values ([2]; 1 h): 93.7 ± 0.9 | Stability values ([2]; 4 h): 94.3 ± 1.7 | Stability values ([2]; 8 h): 93.2 ± 1.1 | Stability values ([2]; 24 h): 91.3 ± 1.8 | specific internalization or cell surface binding [5]: no surface activity or internalization | Stability values ([3]; DTPA, 1 h): 94.3 ± 0.9 | Stability values ([3]; DTPA, 4 h): 92.5 ± 0.5 | Stability values ([3]; DTPA, 8 h): 93.8 ± 1.2 | Stability values ([3]; DTPA, 24 h): 93.4 ± 1.1 | Stability values ([3]; EDTA, 1 h): 93.7 ± 1.3 | Stability values ([3]; EDTA, 4 h): 90.0 ± 3.2 | Stability values ([3]; EDTA, 8 h): 92.3 ± 2.1 | Stability values ([3]; EDTA, 24 h): 91.9 ± 1.8 | specific internalization or cell surface binding (PC3 cells): no surface activity or internalization

O=C(O)CCC(NC(=O)NC(CCCCNC(=O)C(Cc1ccc2ccccc2c1)NC(=O)C1CCC(CNC(=O)CN2CCN(CC(=O)O)CCN(CC(=O)O)CCN(CC(=O)O)CC2)CC1)C(=O)O)C(=O)O.[Lu+3] (stereo not drawn) [[^nat/177Lu]Lu-PSMA-617]
%internalization / total cellular activity ratio ([5]; LNCaP cells, 37 °C, surface versus internalized activity, this assay): 27% | Internalization ± SD [4, 6]: 17.5 ± 3.1 %IA/10^6 cells | %internalization / total cellular activity ratio ([4]; ref Umbricht et al. [2017]): 10–15% | Ki (PSMA; ref Benešová et al. [2015]): 6.9 ± 1.3 nM

O=C(O)CCC(NC(=O)NC(CCCCNC(=O)C(Cc1ccc2ccccc2c1)NC(=O)C1CCC(CNC(=O)CN2CCN(CC(=O)O)CCN(CC(=O)O)CCN(CC(=O)O)CC2)CC1)C(=O)O)C(=O)O.[Sc+3] (stereo not drawn) [[^nat/44Sc]Sc-PSMA-617]
Internalization ± SD ([4]; LNCaP cells, ref Eppard et al. [2017]): 15.8 ± 2.1 %IA/10^6 cells | Ki (PSMA; ref Eppard et al. [2017]): 4.7 ± 0.8 nM

O=C(O)CCCCC1(N(CC(=O)O)CC(=O)O)CN(CC(=O)O)CCN(CC(=O)O)C1.[177Lu+3] [^177Lu AAZTA^5]
Stability values ([1]; 1 h): 97.8 ± 0.5 | Stability values ([1]; 2 h): 98.6 ± 0.4 | Stability values ([1]; 24 h): 99.1 ± 0.6 | Stability values ([1]; 7 d): 96.0 ± 0.8 | Stability values ([2]; 1 h): 99.8 ± 0.1 | Stability values ([2]; 2 h): 99.7 ± 0.1 | Stability values ([2]; 24 h): 99.9 ± 0.1 | Stability values ([2]; 7 d): 82.5 ± 3.2 | specific internalization or cell surface binding [5]: no surface activity or internalization | Stability values ([3]; DTPA, 1 h): 99.1 ± 0.2 | Stability values ([3]; DTPA, 2 h): 99.1 ± 0.1 | Stability values ([3]; DTPA, 24 h): 80.4 ± 5.4 | Stability values ([3]; DTPA, 7 d): 59.0 ± 14.3 | Stability values ([3]; EDTA, 1 h): 98.9 ± 0.2 | Stability values ([3]; EDTA, 2 h): 97.9 ± 0.3 | Stability values ([3]; EDTA, 24 h): 79.2 ± 2.9 | Stability values ([3]; EDTA, 7 d): 48.9 ± 1.5 | specific internalization or cell surface binding (PC3 cells): no surface activity or internalization

From paper PMC7691401, “^68Ga, ^44Sc and ^177Lu-labeled AAZTA^5-PSMA-617: synthesis, radiolabeling, stability and cell binding compared to DOTA-PSMA-617 analogues” (EJNMMI Radiopharmacy and Chemistry, 2020)
